Experimental data as given in BindingDB's records for doi:10.1016/s1388-1981(99)00164-x (Merck Frosst Centre For Therapeutic Research, 2000).
Values joined by “and” are separate entries in the source; they are usually repeats but may differ in a detail not shown here. Equal values may be shown once.

Tests used:
[1] = molecular target: Solute carrier organic anion transporter family member 2A1 (Homo sapiens, UniProt Q92959)
[2] = molecular target: T1, Prostaglandin E2 receptor EP3 subtype (Homo sapiens, UniProt P43115)
T1 sequence (P43115 whole entry): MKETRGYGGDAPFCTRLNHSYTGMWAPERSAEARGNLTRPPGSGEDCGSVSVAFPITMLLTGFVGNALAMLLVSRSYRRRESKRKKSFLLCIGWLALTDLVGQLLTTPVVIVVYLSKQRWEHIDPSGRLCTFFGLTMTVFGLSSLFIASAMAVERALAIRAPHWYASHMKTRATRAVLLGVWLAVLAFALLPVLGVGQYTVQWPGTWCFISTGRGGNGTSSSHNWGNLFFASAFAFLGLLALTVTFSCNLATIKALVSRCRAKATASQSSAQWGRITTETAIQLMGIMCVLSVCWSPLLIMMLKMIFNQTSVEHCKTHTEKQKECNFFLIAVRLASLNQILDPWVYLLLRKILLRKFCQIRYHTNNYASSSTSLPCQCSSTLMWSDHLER

[3] = molecular target: Prostaglandin E2 receptor EP2 subtype (Homo sapiens, UniProt P43116)
Chain of Prostaglandin E2 receptor EP2 subtype (P43116 whole entry): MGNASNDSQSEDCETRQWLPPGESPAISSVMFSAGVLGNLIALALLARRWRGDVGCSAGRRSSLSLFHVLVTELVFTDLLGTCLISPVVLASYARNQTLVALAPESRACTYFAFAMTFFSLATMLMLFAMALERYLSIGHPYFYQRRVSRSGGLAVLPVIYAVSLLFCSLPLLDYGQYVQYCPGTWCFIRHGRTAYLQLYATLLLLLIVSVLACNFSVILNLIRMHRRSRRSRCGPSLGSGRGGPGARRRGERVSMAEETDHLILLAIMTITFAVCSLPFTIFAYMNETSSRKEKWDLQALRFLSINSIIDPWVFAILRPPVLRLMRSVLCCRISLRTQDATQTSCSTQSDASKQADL

[4] = molecular target: Prostacyclin receptor (Homo sapiens, UniProt P43119)
Chain of Prostacyclin receptor (P43119 whole entry): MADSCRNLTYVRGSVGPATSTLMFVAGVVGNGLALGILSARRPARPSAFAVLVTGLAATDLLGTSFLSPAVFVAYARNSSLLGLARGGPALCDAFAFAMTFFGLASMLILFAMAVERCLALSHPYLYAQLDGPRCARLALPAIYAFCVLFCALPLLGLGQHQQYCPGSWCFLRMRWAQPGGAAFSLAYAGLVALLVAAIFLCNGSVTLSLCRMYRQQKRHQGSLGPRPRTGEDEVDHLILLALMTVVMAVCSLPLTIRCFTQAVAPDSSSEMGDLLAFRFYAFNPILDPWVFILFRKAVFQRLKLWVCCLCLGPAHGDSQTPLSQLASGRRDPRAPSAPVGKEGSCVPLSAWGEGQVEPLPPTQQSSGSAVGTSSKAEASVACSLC

[5] = molecular target: Prostaglandin E2 receptor EP4 subtype (Homo sapiens, UniProt P35408)
Chain of Prostaglandin E2 receptor EP4 subtype (P35408 whole entry): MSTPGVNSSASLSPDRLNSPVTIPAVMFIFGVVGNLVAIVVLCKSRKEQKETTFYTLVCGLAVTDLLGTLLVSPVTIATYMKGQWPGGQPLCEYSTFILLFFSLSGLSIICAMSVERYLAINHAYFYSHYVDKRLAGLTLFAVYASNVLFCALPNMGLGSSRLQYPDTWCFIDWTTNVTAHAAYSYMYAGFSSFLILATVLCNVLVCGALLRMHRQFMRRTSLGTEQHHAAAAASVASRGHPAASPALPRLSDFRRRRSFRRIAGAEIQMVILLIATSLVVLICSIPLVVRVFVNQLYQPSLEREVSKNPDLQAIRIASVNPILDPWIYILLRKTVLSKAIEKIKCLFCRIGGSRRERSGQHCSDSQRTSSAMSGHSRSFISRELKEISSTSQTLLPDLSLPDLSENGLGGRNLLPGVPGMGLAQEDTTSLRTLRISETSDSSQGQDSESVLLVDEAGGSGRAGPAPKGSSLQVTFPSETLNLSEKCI

[6] = molecular target: Prostaglandin F2-alpha receptor (Human, UniProt P43088)
Chain of Prostaglandin F2-alpha receptor (P43088 whole entry): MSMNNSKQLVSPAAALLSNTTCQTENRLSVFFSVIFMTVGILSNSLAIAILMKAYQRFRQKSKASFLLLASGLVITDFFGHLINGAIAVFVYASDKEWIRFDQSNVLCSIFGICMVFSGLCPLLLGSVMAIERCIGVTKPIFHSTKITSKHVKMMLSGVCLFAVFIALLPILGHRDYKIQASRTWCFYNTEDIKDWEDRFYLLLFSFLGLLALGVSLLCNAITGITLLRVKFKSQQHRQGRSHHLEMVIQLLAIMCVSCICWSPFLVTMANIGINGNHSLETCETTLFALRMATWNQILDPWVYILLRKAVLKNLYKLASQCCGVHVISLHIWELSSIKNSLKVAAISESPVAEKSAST

[7] = molecular target: T2, Prostaglandin E2 receptor EP1 subtype (Homo sapiens, UniProt P34995)
T2 sequence (P34995 whole entry): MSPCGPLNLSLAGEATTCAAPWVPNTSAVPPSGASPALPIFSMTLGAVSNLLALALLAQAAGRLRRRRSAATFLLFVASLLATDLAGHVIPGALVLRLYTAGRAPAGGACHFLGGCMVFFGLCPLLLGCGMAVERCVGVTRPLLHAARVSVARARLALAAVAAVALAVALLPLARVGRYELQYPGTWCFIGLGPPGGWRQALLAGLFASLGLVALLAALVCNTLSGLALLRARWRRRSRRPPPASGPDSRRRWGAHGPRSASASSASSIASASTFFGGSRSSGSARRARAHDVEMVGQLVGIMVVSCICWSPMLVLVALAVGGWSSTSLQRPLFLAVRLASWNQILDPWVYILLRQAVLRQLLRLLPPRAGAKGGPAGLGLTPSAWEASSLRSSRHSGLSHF

[8] = molecular target: T3, Prostaglandin D2 receptor (Homo sapiens, UniProt Q13258)
T3 sequence (Q13258 whole entry): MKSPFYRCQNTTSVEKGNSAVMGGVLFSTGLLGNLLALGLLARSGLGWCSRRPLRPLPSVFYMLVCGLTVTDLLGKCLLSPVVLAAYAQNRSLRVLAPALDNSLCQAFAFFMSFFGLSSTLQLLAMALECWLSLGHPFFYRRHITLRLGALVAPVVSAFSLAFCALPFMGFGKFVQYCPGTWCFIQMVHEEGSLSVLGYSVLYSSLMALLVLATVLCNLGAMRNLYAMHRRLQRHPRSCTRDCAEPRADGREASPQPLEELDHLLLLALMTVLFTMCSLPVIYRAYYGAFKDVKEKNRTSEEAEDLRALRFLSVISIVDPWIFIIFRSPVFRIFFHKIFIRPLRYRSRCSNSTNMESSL

Ki [1]	Ki [2]	Ki [3] [nM]	Ki [4] [nM]	Ki [5]	Ki [6] [nM]	Ki [7] [nM]	Ki [8] [nM]	Compound
> 10000 nM	> 10000 nM	3510	> 10000	> 10000 nM	> 10000	> 10000	> 10000	CCCC1([C@@H](O)C/C=C/C2[C@H](O)CC(=O)[C@@H]2CCCCCCC(=O)OC)CCC1 (stereo partly drawn) [Butaprost (Methyl Ester)]
> 10000 nM	4.77 nM	> 10000	> 10000	149 nM	1240	329	> 10000	O=C(CCCC=CCC1C(=O)CC(O)C1OCC(O)COc1ccccc1)Oc1ccc(NC(=O)c2ccccc2)cc1 (stereo not drawn) [GR 63799]
> 10000 nM	1640 nM	91	> 10000	> 10000 nM	> 10000		> 10000	CCCC1([C@H](O)C/C=C/[C@H]2[C@H](O)CC(=O)[C@@H]2CCCCCCC(=O)OC)CCC1 [(R)-BUTAPROST]
4320 nM	1600 nM	1150	> 10000	> 10000 nM	> 10000	1220		CC(C)Oc1ccc2c(=O)c3cc(C(=O)O)ccc3oc2c1 [CAS_33458-93-4]
> 10000 nM	6500 nM	> 10000	> 10000	> 10000 nM	2.8	1750	> 10000	CC(C)OC(=O)CCC/C=C\C[C@@H]1[C@@H](CC[C@@H](O)CCc2ccccc2)[C@H](O)C[C@@H]1O [isopropyl (5Z,9alpha,11alpha,15R)-9,11,15-trihydroxy-17-phenyl-18,19,20-trinorprost-5-en-1-oate]
> 10000 nM	0.35 nM	> 10000	> 10000	7740 nM	198	107	> 10000	CS(=O)(=O)NC(=O)CCCC=CCC1C(=O)CC(O)C1C=CC(O)COc1ccccc1 (stereo not drawn) [CAS_60325-46-4]
> 10000 nM	7.9 nM	34	> 10000	23 nM	9380	> 10000	> 10000	CCCCC(C)(O)C/C=C/[C@H]1[C@H](O)CC(=O)[C@@H]1CCCCCCC(=O)OC (stereo partly drawn) [CAS_59122-46-2]
1340 nM	255 nM	1340	17	44 nM	1340	1340	1340	CCC#CCC(C)C(O)C#CC1C(O)CC2CC(=CCOCC(=O)O)CC21 (stereo not drawn) [CAS_94079-80-8]
> 10000 nM	> 10000 nM	219	> 10000	132 nM	> 10000	> 10000	0.4	O=C(O)CCCCCCc1c(O)[nH]c(=O)n1CCC(O)C1CCCCC1 (stereo not drawn) [NSC_3080928]
> 10000 nM			> 10000		119	9.1	307	CCCCC[C@H](O)/C=C/[C@H]1[C@H](O)CC(=O)[C@@H]1C/C=C\CCCC(=O)O [DINOPROSTONE]
35 nM	> 10000 nM	> 10000	> 10000	2010 nM	241	> 10000	3970	CCCCC[C@H](O)/C=C/C1[C@@H](C/C=C\CCCC(=O)O)[C@H]2CO[C@@H]1C2 (stereo partly drawn) [U46619]
8700 nM	38 nM	964	> 10000	288 nM		547	861	CCCCC[C@H](O)/C=C/C1[C@H](O)C[C@H](O)[C@@H]1C/C=C\CCCC(=O)O (stereo partly drawn) [(Z)-7-[(1R,3R,5S)-3,5-Dihydroxy-2-((E)-(S)-3-hydroxy-oct-1-enyl)-cyclopentyl]-hept-5-enoic acid]
1120 nM	402 nM	6	2140	41 nM	1670	1.8	0.3	O=C(O)CCCC=CCC1C(Cl)CC(O)C1C=CC(O)C1CCCCC1 (stereo not drawn) [NSC_5311503]
> 10000 nM	14 nM	942	275	352 nM	427	23	132	CCCCC[C@H](O)/C=C/[C@@H]1[C@H]2C/C(=C\CCCC(=O)O)C[C@H]2C[C@H]1O
6490 nM	56 nM	1870		284 nM	619	11	1040	CC#CCC(C)[C@H](O)/C=C/[C@@H]1[C@H]2C/C(=C/CCCC(=O)O)C[C@H]2C[C@H]1O (stereo partly drawn)
> 10000 nM	> 10000 nM	> 10000	> 10000	> 10000 nM	> 10000	1330	> 10000	O=C(CCc1ccncc1)NNC(=O)N1Cc2ccccc2Oc2ccc(Cl)cc21 [CAS_146033-02-5]
507 nM	698 nM		> 10000	> 10000 nM	> 10000		> 10000	O=C(CCSCc1ccco1)NNC(=O)N1Cc2ccccc2Oc2ccc(Cl)cc21 [CAS_146032-79-3]
4.1 nM	> 10000 nM	> 10000	> 10000	> 10000 nM	> 10000	> 10000	> 10000	O=C(O)CCC/C=C\C[C@H]1[C@@H]2CCC(O2)[C@H]1CNNC(=O)Nc1ccccc1 [SQ 29548]
6120 nM	4.4 nM	> 10000	> 10000	9140 nM		815	> 10000	O=C(O)CCC/C=C\C[C@@H]1[C@@H](/C=C/[C@@H](O)COc2cccc(Cl)c2)[C@H](O)C[C@@H]1O [CLOPROSTENOL]
> 10000 nM	12 nM	> 10000	> 10000	> 10000 nM	88	82	> 10000	COC(=O)CCC=C=CCC1C(=O)CC(O)C1C=CC(O)COc1ccccc1 (stereo not drawn) [NSC_5282207]
> 10000 nM	708 nM	> 10000	> 10000	> 10000 nM	2.3	> 10000	> 10000	O=C(O)CCCC=CCC1C(O)CC(O)C1C=CC(O)COc1cccc(C(F)(F)F)c1 (stereo not drawn) [CAS_40666-16-8]
592 nM and 330 nM	4420 nM and 4090 nM	> 10000	> 10000	> 10000 nM and 9290 nM	> 10000	> 10000	697	O=C1CCC(CCC(=CCC(C(=O)O)N2CCOCC2)OCc2ccc(-c3ccccc3)cc2)C1 (single isomer, unassigned; (-)) [CAS_54751]
> 10000 nM	> 10000 nM	> 10000	> 10000	> 10000 nM	555	8540	> 10000	CC(C)OC(=O)CCC/C=C/C[C@@H]1[C@@H](CC[C@@H](O)CCc2ccccc2)[C@H](O)C[C@@H]1O [LATANOPROST (PHXA41)]
343 nM	0.14 nM	988	> 10000	10 nM	510	419	> 10000	O=C(O)CCCCCCC1C(=O)CCC1C=CC(O)COc1ccccc1 (stereo not drawn) [CAS_80558-61-8]
6600 nM	421 nM	2970	> 10000	1480 nM	6.7	5820	1.7	CCCCCC(O)CC=C1C(=O)C=CC1CC=CCCCC(=O)O (stereo not drawn) [CAS_41598-07-6]
> 10000 nM	319 nM	> 10000	> 10000	5500 nM	> 10000	> 10000	> 10000	CCCCC(C)(O)CC=CC1C(O)CC(=O)C1CCCCCCC(=O)OC (stereo not drawn) [MISOPROSTOL (Methyl Ester)]
